Patent EP0597004B1, “THE USE OF DIOXAPYRROLOMYCIN AS AN ANTIPARASITIC AGENT AND COMPOSITIONS USEFUL THEREFOR” (PHARMACIA & UPJOHN COMPANY, priority 1991, dated 1993)
Several values for one entry are separate records, joined by “and”; a condition that tells them apart may be missing. Equal values may be shown once. Where a name gives a salt, the structure may show the parent alone. Read-outs that look alike come from different tables or passages of the source.

Tests used:
Haemonchus contortus [1] = experiment: Haemonchus contortus / jird assay (clearance from experimentally infected jirds); assay type: in vivo; conditions: necropsy day 13 PI; for Percentage Clearance Susceptible: susceptible strain; for Percentage Clearance H. contortus: purity ∼100%
Method: (§1) This in vivo assay utilizes jirds infected with two important target parasites of ruminants, H. contortus and T. colubriformis (anthelmintic-sensitive or -resistant worms can be used). Initially, activity is assessed only against H. contortus as described in G.A. Conder et. al., J. Parasitol. 76:168-170 (1990), while follow-up studies examine activity against both species of parasites using the techniques outlined in G.A. Conder et al., J. Parsitol. 77:168-170 (1991).

[2] = test system: levamisole/benzimidazole-resistant Haemonchus contortus; experiment: Jird assay with levamisole/benzimidazole-resistant strain (cross-resistance); assay type: in vivo; conditions: jirds, necropsy day 13 PI
Excerpt: (§2) Having shown potent activity against H. contortus in sheep, dioxapyrrolomycin was examined for cross-resistance to the three major classes of broad-spectrum anthelmintics (ivermectin, levamisole, and benzimidazoles) using jirds infected with resistant strains of H. contortus. […] In vitro, the dioxapyrrolomycin dose required to affect a closantel-resistant strain of H. contortus is approximately seventeen times that required for the susceptible strain.
as §1

[3] = test system: ivermectin-resistant Haemonchus contortus; experiment: Jird assay with ivermectin-resistant strain (cross-resistance); assay type: in vivo; conditions: jirds, necropsy day 13 PI
Excerpt: as §2, §1

Caenorhabditis elegans = Caenorhabditis elegans in vitro assay; conditions: free-living nematode
Excerpt: The free-living nematode C. elegans in vitro assay has been described extensively in the literature, for example, K.G. Simpkin and G.C. Coles, J. Chem. Tech. Biotechnol., 31:66-69 (1981).
Dioxapyrrolomycin is active in the C. elegans assay at 0.825 ppm.

[4] = test system: Trichostrongylus colubriformis; experiment: Trichostrongylus colubriformis / jird assay (clearance from experimentally infected jirds); assay type: in vivo; conditions: necropsy day 13 PI, purity ∼100%
Method: as §1

[5] = mice, cited from earlier work
Haemonchus contortus [6] = experiment: Haemonchus contortus / sheep assay (clearance from monospecifically infected lambs); assay type: in vivo; conditions: necropsy day 42 PI
Method: Purpose bred, helminth-free lambs are procured. Upon arrival, the lambs are treated with ivermectin (0.2 mg/kg, subcutaneously), vaccinated for sore mouth, and placed in a single, community pen. Three weeks later each lamb is treated with levamisole hydrochloride (8.0 mg/kg per os). Two weeks after treatment with levamisole, all lambs are inoculated per os with ∼ 7,500 infective larvae of H. contortus. Rectal fecal samples are taken from each lamb 1 to 3 days prior to infection and these are examined using the double centrifugation technique to verify that the animals are free of trichostrongyles prior to infection. […] Remaining lambs are treated per os on day 35 PI; 4-5 animals receive vehicle only. Prior to administration, test materials are prepared in a manner suitable for the substance being examined. All lambs are monitored for toxic signs following treatment. Lambs are killed 7 days after treatment (day 42 PI), and the abomasum is ligated and removed from each animal. Each abomasum is opened longitudinally and the contents rinsed into an 80 mesh sieve. Sieve contents are collected in individual containers and fixed in formol-alcohol. Later each sample is transferred to a 1,000 ml graduated cylinder and the volume brought to 400 - 1000 ml with tap water. The total number of worms in a 10% aliquot is determined. If no worms are found in the 10% aliquot, the entire sample is examined. Total worm number/lamb and percentage clearance for each treatment are calculated. Percentage clearance is determined according to the following formula: Percentage clearance = [(Mean number of worms recovered from vehicle control lambs - number of worms recovered from treated lamb)/mean number of worms recovered from vehicle control lambs] x 100.

[7] = test system: closantel-resistant strain of H. contortus; experiment: In vitro cross-resistance with closantel-resistant strain; design: species or system Haemonchus contortus; conditions: closantel-resistant vs susceptible H. contortus
Excerpt: as §2

[8] = 0.012 mg/jird per os on day 10 PI
[9] = 0.11 mg/jird per os on day 10 PI
[10] = 0.11 mg/jird per os day 10 PI, purity 95%

CCCSc1ccc2nc(NC(=O)OC)[nH]c2c1 [Albendazole, reference compound]
Percentage Clearance Susceptible (Haemonchus contortus [1]; 0.075 mg/jird per os day 10 PI): ∼95.0% | Percentage Clearance Levamisole/Benzimidazole Resistant ([2]; 0.075 mg/jird per os day 10 PI): 36.2%

Ivermectin
Percentage Clearance Ivermectin Resistant ([3]; 0.005 mg/jird per os day 10 PI): 18.7% | Percentage Clearance Susceptible (Haemonchus contortus [1]; 0.005 mg/jird per os day 10 PI): ∼95.0% | Percentage Clearance Levamisole/Benzimidazole Resistant ([2]; 0.005 mg/jird per os day 10 PI): 98.6%

O=[N+]([O-])c1c([C@H]2OCOc3c(Cl)cc(Cl)cc32)[nH]c(Cl)c1Cl [Dioxapyrrolomycin, dioxapyrrolomycin]
active in the C. elegans in vitro assay at (Caenorhabditis elegans): 0.825 ppm | Percentage Clearance T. colubriformis [4, 8]: 48.8% | Percentage Clearance T. colubriformis ([4]; 0.037 mg/jird per os on day 10 PI): 17.2% | Percentage Clearance T. colubriformis [4, 9]: 0% | Percentage Clearance T. colubriformis ([4]; 0.33 mg/jird (= 8.25 mg/kg) per os on day 10 PI): 41.5% | LD50 ([5]; ip): 125 to 250 mg/kg | LD50 ([5]; po): 13 mg/kg | Percentage Clearance (Haemonchus contortus [6]; 0.78 mg/kg per os on day 35 PI): 44.0% | Percentage Clearance (Haemonchus contortus [6]; 1.56 mg/kg per os on day 35 PI): 92.2% | Percentage Clearance (Haemonchus contortus [6]; 3.125 mg/kg per os on day 35 PI, 3.125 mg/kg): 99.7% and 99.9% | Percentage Clearance (Haemonchus contortus [6]; 6.25 mg/kg per os on day 35 PI): 99.9% | Percentage Clearance (Haemonchus contortus [6]; 12.5 mg/kg per os on day 35 PI): 100% | Percentage Clearance Ivermectin Resistant [3, 10]: 92.7% | Percentage Clearance H. contortus (Haemonchus contortus [1]; [8]): 45.8% | Percentage Clearance H. contortus (Haemonchus contortus [1]; 0.037 mg/jird (= 0.925 mg/kg) per os on day 10 PI): 96.4% | Percentage Clearance H. contortus (Haemonchus contortus [1]; [9]): 100% | Percentage Clearance Susceptible (Haemonchus contortus [1]; [10]): 95.8% | Percentage Clearance Levamisole/Benzimidazole Resistant [2, 10]: 98.6% | dose required to affect a closantel-resistant strain relative to that required for the susceptible strain [7]: approximately seventeen

c1ccc([C@H]2CN3CCSC3=N2)cc1 [Levamisole hydrochloride]
Percentage Clearance Ivermectin Resistant ([3]; 0.4 mg/jird per os day 10 PI): 96.4% | Percentage Clearance Susceptible (Haemonchus contortus [1]; 0.4 mg/jird per os day 10 PI): ∼95.0% | Percentage Clearance Levamisole/Benzimidazole Resistant ([2]; 0.4 mg/jird per os day 10 PI): 51.7%
